The subject of experiment [1] is excised wheat leaves (chlorophyll degradation in the dark). In words: Wheat leaf senescence assay (WLSA). It counts as cell-based, Triticum aestivum cv. Hereward. How it is done: (§1) Tobacco callus, Amaranthus and Wheat leaf senescence assay (WLSA) were performed as described by Holub et al. ([1998]) including the number of repetitions in each assay. An exception to the published protocols was that the tobacco callus assay was performed in 6-well microtiter plates (with each well containing 3 ml of Murashige Skoog medium into which 0.1 g of callus was added). Each compound was tested at least twice in each assay and in a wider concentration range to obtain concentration-dependent activity curves. IC50 means compound concentration at which chlorophyll degradation is inhibited by 50% and EC50 means half the maximal effective concentration.
(§2) Amaranthus assay evaluates the induction of betacyanin synthesis in Amaranthus (Amaranthus caudatus var. atropurpurea) cotyledons, which is induced by cytokinins (Bamberger and Mayer, [1960]). The WLSA evaluates the ability of compounds to retard chlorophyll degradation in excised wheat leaves that are kept in the dark. The wheat leaf segments (Triticum aestivum cv. Hereward) were used in all other experiments requiring wheat. Arabidopsis (Arabidopsis thaliana) leaf senescence assay was performed with detached leaves from 30-day-old plants, which were grown in soil in phytotron under standard conditions (Rivero et al., [2014]). Four leaves of a combined weight of 60 mg were placed in a six-well plate and stored in the dark for 12 days at 22°C. The leaves (except the fresh control leaves) floated on water solutions of tested compounds. Fresh control leaves were leaves detached from a plant and immediately used for chlorophyll determination. The duration of the senescence assay of Arabidopsis leaves was prolonged to highlight the difference in chlorophyll content between a negative control and treatments. Arabidopsis leaves were losing chlorophyll more slowly than wheat leaves. Chlorophyll extraction and spectrophotometric determination of its content was done according to Holub et al. ([1998]).

The test system is the same in experiment [2]. Particulars: read-out: WLSA IC50; ref Gajdošová et al., [2011]; cited from earlier work.
The target in experiment [3] is T1, CRE1/AHK4 (Arabidopsis thaliana, UniProt Q9C5U0). Put plainly: Cytokinin receptor activation assay in E. coli (CRE1/AHK4). The experiment is classed as cell-based. Also on record: expressed in transfected cells; host or cells: Escherichia coli strain KMI001, plasmid pIN-IIIAHK4. The source says: (§3) The activity of this enzyme is finally measured in the assay and corresponds to the ability of the tested compound to activate this cytokinin receptor. Both assays were done at least twice and the presented graphs are the most representative examples.
T1 sequence (Q9C5U0 whole entry): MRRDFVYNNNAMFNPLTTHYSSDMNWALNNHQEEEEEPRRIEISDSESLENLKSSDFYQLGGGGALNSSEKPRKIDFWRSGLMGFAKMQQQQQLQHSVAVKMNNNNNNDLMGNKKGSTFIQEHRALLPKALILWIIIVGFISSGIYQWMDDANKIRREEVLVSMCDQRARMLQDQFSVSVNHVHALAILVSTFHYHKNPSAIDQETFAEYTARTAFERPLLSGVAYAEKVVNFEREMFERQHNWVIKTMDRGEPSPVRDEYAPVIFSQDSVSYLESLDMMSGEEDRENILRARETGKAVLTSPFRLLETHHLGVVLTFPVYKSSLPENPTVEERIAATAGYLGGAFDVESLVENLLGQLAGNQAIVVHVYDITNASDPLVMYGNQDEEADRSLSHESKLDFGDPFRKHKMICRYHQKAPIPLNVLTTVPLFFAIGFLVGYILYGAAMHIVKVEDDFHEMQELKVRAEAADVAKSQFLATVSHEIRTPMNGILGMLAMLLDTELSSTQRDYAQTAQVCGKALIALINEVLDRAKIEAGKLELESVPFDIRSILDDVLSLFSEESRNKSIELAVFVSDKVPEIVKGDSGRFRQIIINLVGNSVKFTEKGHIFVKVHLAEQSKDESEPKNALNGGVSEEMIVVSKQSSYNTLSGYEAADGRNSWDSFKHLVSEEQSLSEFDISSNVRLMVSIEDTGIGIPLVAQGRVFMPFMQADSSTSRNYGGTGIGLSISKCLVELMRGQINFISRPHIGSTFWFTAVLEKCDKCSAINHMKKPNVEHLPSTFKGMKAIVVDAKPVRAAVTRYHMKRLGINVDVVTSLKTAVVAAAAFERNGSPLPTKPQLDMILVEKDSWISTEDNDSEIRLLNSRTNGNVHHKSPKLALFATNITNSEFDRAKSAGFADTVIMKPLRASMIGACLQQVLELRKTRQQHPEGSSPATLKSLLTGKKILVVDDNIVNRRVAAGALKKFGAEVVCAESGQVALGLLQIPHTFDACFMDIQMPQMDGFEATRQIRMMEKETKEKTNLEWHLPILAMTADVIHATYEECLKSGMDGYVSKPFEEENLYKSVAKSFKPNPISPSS

Experiment [4] deals with T1, CRE1/AHK4. Particulars: read-out: CRE1/AHK4 receptor activation EC50 (previous study); ref Nisler et al., [2010]; cited from earlier work.
Experiment [5] has as its system Amaranthus caudatus cotyledon-hypocotyl explants. In words: Amaranthus bioassay (betacyanin synthesis). The experiment is classed as cell-based, Amaranthus caudatus var. atropurpurea. Particulars: Amaranthus caudatus, read-out: Amaranthus bioassay (EC50, μM). How it is done:
as §1, §2

Experiment [6] relates to cytokinin-dependent tobacco callus. In words: Tobacco callus bioassay. It counts as cell-based. As to conditions: Nicotiana tabacum, read-out: Tobacco callus bioassay (EC50, μM). Here is the method: as §1
In experiment [7] the target is T2, AHK3 (Arabidopsis thaliana, UniProt Q9C5U1).
T2 construct: expressed in transfected cells; host or cells: Escherichia coli strain KMI001, plasmid pSTV28-AHK3
T2 sequence (Q9C5U1 1-1036): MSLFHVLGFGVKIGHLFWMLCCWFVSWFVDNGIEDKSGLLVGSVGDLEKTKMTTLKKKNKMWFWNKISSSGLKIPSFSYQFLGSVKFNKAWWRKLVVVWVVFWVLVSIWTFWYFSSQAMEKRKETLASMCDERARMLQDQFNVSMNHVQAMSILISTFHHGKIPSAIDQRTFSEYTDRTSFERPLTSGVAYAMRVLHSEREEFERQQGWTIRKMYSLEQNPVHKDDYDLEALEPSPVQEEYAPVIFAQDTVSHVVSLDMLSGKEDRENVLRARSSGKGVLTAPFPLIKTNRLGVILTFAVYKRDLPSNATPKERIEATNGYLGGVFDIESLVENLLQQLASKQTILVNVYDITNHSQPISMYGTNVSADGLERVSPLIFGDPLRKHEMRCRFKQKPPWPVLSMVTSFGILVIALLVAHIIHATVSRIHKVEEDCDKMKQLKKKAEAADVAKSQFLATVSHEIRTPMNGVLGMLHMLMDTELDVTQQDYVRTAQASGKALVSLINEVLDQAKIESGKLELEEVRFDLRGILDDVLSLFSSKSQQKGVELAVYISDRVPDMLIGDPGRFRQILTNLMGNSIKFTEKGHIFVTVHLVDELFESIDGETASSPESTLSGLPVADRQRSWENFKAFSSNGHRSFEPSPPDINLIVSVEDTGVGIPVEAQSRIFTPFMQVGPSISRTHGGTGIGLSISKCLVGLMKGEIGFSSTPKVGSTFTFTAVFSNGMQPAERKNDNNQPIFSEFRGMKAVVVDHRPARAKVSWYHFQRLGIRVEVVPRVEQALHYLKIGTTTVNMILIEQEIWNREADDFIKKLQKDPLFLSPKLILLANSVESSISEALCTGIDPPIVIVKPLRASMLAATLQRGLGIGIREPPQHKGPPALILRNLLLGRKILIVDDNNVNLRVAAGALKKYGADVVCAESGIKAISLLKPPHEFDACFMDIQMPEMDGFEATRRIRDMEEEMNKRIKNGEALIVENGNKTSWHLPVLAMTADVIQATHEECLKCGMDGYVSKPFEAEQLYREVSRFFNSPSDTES
In words: Cytokinin receptor activation assay in E. coli (AHK3). The experiment is classed as cell-based.
From the text: as §3

The subject of experiment [8] is ARR5:GUS reporter gene. Put plainly: Arabidopsis ARR5:GUS reporter gene assay. Particulars: Arabidopsis thaliana, read-out: ARR5:GUS activation EC50. It counts as in vivo, Arabidopsis thaliana. How it is done: Transgenic Arabidopsis plants (Arabidopsis thaliana (L.) Heynh. accession Wassilewskija) harboring the GUS reporter gene (gene for β-glucuronidase) fused to 1.6 kb of the ARR5 (PARR5−GUS) gene promoter (D'Agostino et al., [2000]) were kindly provided by professor Thomas Schmülling. The assay was performed according to Romanov et al. ([2002]). β-Glucuronidase (GUS) activity was quantitatively determined by measuring fluorescence of 4-methylumbelliferyl (MU) on a Synergy H4 hybrid reader (Biotek, Winooski, VT) with excitation and emission wavelengths of 365 and 445 nm, respectively. GUS specific activity was determined as nmol MU × mg protein^−1 × h^−1. This was calculated by dividing the relative fluorescence units (obtained per hour) by protein content of the same sample. Protein extraction was done as described by Romanov et al. ([2002]) but its content was determined using a bicinchoninic acid reagent (Smith et al., [1985]). Finally we expressed the GUS activity in samples as a relative percentage, the activity of 1 μM BA being set as 100% activation. The concentration-dependent activity curves and EC50 values (for TDZ, tZ, BA, TD-iP, and TD-tZ) were constructed using Scion image program.

SMILES strings stand for the structures. Where two headings read alike, the source gives them in different places.

A word on the IC50: it is the concentration at which inhibition is half-maximal. As for `C/C(=C/CNc1ncnc2nc[nH]c12)CO` [cis-zeatin, reference compound], in experiment [1], the “IC50 in WLSA, fold higher than IC50 of ASES” value amounted to 300 fold and the “IC50 in WLSA, fold higher than IC50 of tZ” value is reported as 10 fold. The IC50 in experiment [2] was approximately 300 µM.
With `C/C(=C\CNc1ncnc2[nH]cnc12)CO` [tZ, trans-zeatin, reference compound], the EC50 is 0.35 µM in experiment [3]; 0.2 µM in experiment [4]; 0.9 µM in experiment [5]; 0.012 µM in experiment [6]; 0.066 µM in experiment [7]; 0.009 µM in experiment [8]. Moreover, the IC50 in experiment [1] (Triticum aestivum, 120 h, read-out: Senescence bioassay (IC50, μM)) is 30 µM.

Values taken from publication PMC6142817, “New Urea Derivatives Are Effective Anti-senescence Compounds Acting Most Likely via a Cytokinin-Independent Mechanism” (Frontiers in Plant Science, 2018).
